According to PubChem BioAssay (NCI):
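Grown in 96-well plates, cells were treated for 48 hours with each compound at five concentrations. Insufficient inhibition: endpoint recorded as highest concentration tested. GI50 marks 50% less growth. TGI is the concentration that stops growth completely.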

How the values were obtained:
Test in all cases: NCI anticancer screen, dose series, 48 h
786-0 renal = test system: 786-0 renal
A498 renal = test system: A498 renal
A549 NSCLC = test system: A549 NSCLC
ACHN renal = test system: ACHN renal
BT-549 breast = test system: BT-549 breast
CAKI-1 renal = test system: CAKI-1 renal
CCRF-CEM leukemia = test system: CCRF-CEM leukemia
DU-145 prostate = test system: DU-145 prostate
HL-60(TB) leukemia = test system: HL-60(TB) leukemia
HOP-62 NSCLC = test system: HOP-62 NSCLC
HS 578T breast = test system: HS 578T breast
HT29 colon = test system: HT29 colon
IGROV1 ovarian = test system: IGROV1 ovarian
KM12 colon = test system: KM12 colon
LOX IMVI melanoma = test system: LOX IMVI melanoma
M14 melanoma = test system: M14 melanoma
MALME-3M melanoma = test system: MALME-3M melanoma
MCF7 breast = test system: MCF7 breast
MDA-MB-231 breast = test system: MDA-MB-231 breast
MDA-MB-435 = test system: MDA-MB-435
NCI-H226 lung = test system: NCI-H226 lung
NCI-H460 lung = test system: NCI-H460 lung
NCI/ADR-RES ovarian = test system: NCI/ADR-RES ovarian
OVCAR-3 ovarian = test system: OVCAR-3 ovarian
OVCAR-4 ovarian = test system: OVCAR-4 ovarian
OVCAR-5 ovarian = test system: OVCAR-5 ovarian
PC-3 prostate = test system: PC-3 prostate
RXF 393 renal = test system: RXF 393 renal
SF-268 CNS = test system: SF-268 CNS
SF-295 CNS = test system: SF-295 CNS
SF-539 CNS = test system: SF-539 CNS
SK-MEL-2 melanoma = test system: SK-MEL-2 melanoma
SK-MEL-28 melanoma = test system: SK-MEL-28 melanoma
SK-OV-3 ovarian = test system: SK-OV-3 ovarian
SNB-19 CNS = test system: SNB-19 CNS
SNB-75 CNS = test system: SNB-75 CNS
SR leukemia = test system: SR leukemia
SW-620 colon = test system: SW-620 colon
T-47D breast = test system: T-47D breast
TK-10 renal = test system: TK-10 renal
U251 CNS = test system: U251 CNS
UACC-62 melanoma = test system: UACC-62 melanoma
UO-31 renal = test system: UO-31 renal

CCCCCCC(=O)NC1=C(N2CC2)C(=O)C(NC(=O)CCCCCC)=C(N2CC2)C1=O
GI50 (786-0 renal): 4.25 µM | TGI (786-0 renal): > 100 µM | GI50 (A498 renal): 2.62 µM | TGI (A498 renal): > 100 µM | GI50 (A549 NSCLC): 2.79 µM | TGI (A549 NSCLC): > 100 µM | GI50 (ACHN renal): 2.76 µM | TGI (ACHN renal): > 100 µM | GI50 (BT-549 breast): 31.3 µM | TGI (BT-549 breast): > 100 µM | GI50 (CAKI-1 renal): 1.93 µM | TGI (CAKI-1 renal): > 100 µM | GI50 (CCRF-CEM leukemia): 4.32 µM | TGI (CCRF-CEM leukemia): > 100 µM | GI50 (DU-145 prostate): 1.13 µM | TGI (DU-145 prostate): > 100 µM | GI50 (HL-60(TB) leukemia): 3.17 µM | TGI (HL-60(TB) leukemia): > 100 µM | GI50 (HOP-62 NSCLC): 5.35 µM | TGI (HOP-62 NSCLC): > 100 µM | GI50 (HS 578T breast): 3.11 µM | TGI (HS 578T breast): > 100 µM | GI50 (HT29 colon): 2.94 µM | TGI (HT29 colon): > 100 µM | GI50 (IGROV1 ovarian): 2.31 µM | TGI (IGROV1 ovarian): > 100 µM | GI50 (KM12 colon): 3.12 µM | TGI (KM12 colon): > 100 µM | GI50 (LOX IMVI melanoma): 3.03 µM | TGI (LOX IMVI melanoma): > 100 µM | GI50 (M14 melanoma): 2.25 µM | TGI (M14 melanoma): > 100 µM | GI50 (MALME-3M melanoma): 1.6 µM | TGI (MALME-3M melanoma): 4.98 µM | GI50 (MCF7 breast): 2.06 µM | TGI (MCF7 breast): > 100 µM | GI50 (MDA-MB-231 breast): 3.89 µM | TGI (MDA-MB-231 breast): > 100 µM | GI50 (MDA-MB-435): 1.56 µM | TGI (MDA-MB-435): 3.11 µM | GI50 (NCI-H226 lung): > 100 µM | TGI (NCI-H226 lung): > 100 µM | GI50 (NCI-H460 lung): 0.677 µM | TGI (NCI-H460 lung): > 100 µM | GI50 (NCI/ADR-RES ovarian): 3.18 µM | TGI (NCI/ADR-RES ovarian): > 100 µM | GI50 (OVCAR-3 ovarian): 1.53 µM | TGI (OVCAR-3 ovarian): 4.85 µM | GI50 (OVCAR-4 ovarian): 3.11 µM | TGI (OVCAR-4 ovarian): > 100 µM | GI50 (OVCAR-5 ovarian): > 100 µM | TGI (OVCAR-5 ovarian): > 100 µM | GI50 (PC-3 prostate): 1.61 µM | TGI (PC-3 prostate): > 100 µM | GI50 (RXF 393 renal): 16.3 µM | TGI (RXF 393 renal): 79.5 µM | GI50 (SF-268 CNS): 2.23 µM | TGI (SF-268 CNS): > 100 µM | GI50 (SF-295 CNS): 0.444 µM | TGI (SF-295 CNS): 34 µM | GI50 (SF-539 CNS): 2.37 µM | TGI (SF-539 CNS): > 100 µM | GI50 (SK-MEL-2 melanoma): 2.52 µM | TGI (SK-MEL-2 melanoma): 6.14 µM | GI50 (SK-MEL-28 melanoma): > 100 µM | TGI (SK-MEL-28 melanoma): > 100 µM | GI50 (SK-OV-3 ovarian): 13 µM | TGI (SK-OV-3 ovarian): > 100 µM | GI50 (SNB-19 CNS): 12.9 µM | TGI (SNB-19 CNS): > 100 µM | GI50 (SNB-75 CNS): 11.7 µM | TGI (SNB-75 CNS): 43.9 µM | GI50 (SR leukemia): 1.06 µM | TGI (SR leukemia): > 100 µM | GI50 (SW-620 colon): 2.25 µM | TGI (SW-620 colon): > 100 µM | GI50 (T-47D breast): 3.45 µM | TGI (T-47D breast): > 100 µM | GI50 (TK-10 renal): 20.2 µM | TGI (TK-10 renal): 72.9 µM | GI50 (U251 CNS): 2.88 µM | TGI (U251 CNS): > 100 µM | GI50 (UACC-62 melanoma): 1.87 µM | TGI (UACC-62 melanoma): > 100 µM | GI50 (UO-31 renal): 6.15 µM | TGI (UO-31 renal): > 100 µM
